Measurements: PubChem BioAssay AID330 (DTP/NCI, 2004)
Toxic doses and inconclusive results are not listed.

Tested on: P388 leukemia ip, CD2F1 mice, survival T/C
Assay: NCI In Vivo Anticancer Drug Screen. Data for tumor model P388 Leukemia (intraperitoneal) in CD2F1 (CDF1) mice
Conditions: endpoint: median survival time, higher = longer survival
Outline: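 Mice carrying the transplanted tumor received test compound or vehicle. Survival was recorded in each group, and the value is the treated-group measurement divided by that of the vehicle-treated control group.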

[1] = dose: 50.0 mg/kg/injection, schedule: Q01DX005 (ip), vehicle: saline with Tween-80
[2] = dose: 100.0 mg/kg/injection, schedule: Q01DX005 (ip), vehicle: saline with Tween-80
[3] = dose: 200.0 mg/kg/injection, schedule: Q01DX005 (ip), vehicle: saline with Tween-80
[4] = dose: 50.0 mg/kg/injection, schedule: Q01DX009 (ip), vehicle: Klucel (hydroxypropylcellulose) (HPC)
[5] = dose: 100.0 mg/kg/injection, schedule: Q01DX009 (ip), vehicle: Klucel (hydroxypropylcellulose) (HPC)
[6] = dose: 200.0 mg/kg/injection, schedule: Q01DX009 (ip), vehicle: Klucel (hydroxypropylcellulose) (HPC)
[7] = dose: 50.0 mg/kg/injection, schedule: Q01DX005 (ip), vehicle: Klucel (hydroxypropylcellulose) (HPC)
[8] = dose: 100.0 mg/kg/injection, schedule: Q04DX003 (ip), vehicle: saline with Tween-80
[9] = dose: 50.0 mg/kg/injection, schedule: Q01DX009 (ip), vehicle: saline with Tween-80
[10] = dose: 100.0 mg/kg/injection, schedule: Q01DX009 (ip), vehicle: saline with Tween-80
[11] = dose: 200.0 mg/kg/injection, schedule: Q01DX009 (ip), vehicle: saline with Tween-80
[12] = dose: 100.0 mg/kg/injection, schedule: Q04DX003 (ip), vehicle: saline
[13] = dose: 200.0 mg/kg/injection, schedule: Q04DX003 (ip), vehicle: saline
[14] = dose: 400.0 mg/kg/injection, schedule: Q04DX003 (ip), vehicle: saline

Question: Which T/C [1] does the source give for `C/C(N=NC(=S)N1CC2CCC(CC2)C1)=C1\C=CC=CN1O` here?
Answer: 105 % of control

Question: What about the T/C [2] of the same molecule?
Answer: 98 % of control

Question: And the T/C [3]?
Answer: 101 % of control

Question: How did the T/C [4] turn out when `N#Cc1nc2ccccc2n1OCc1ccccc1` was run?
Answer: 97 % of control

Question: And the T/C [5]?
Answer: 107 % of control

Question: And the T/C [6]?
Answer: 102 % of control

Question: Which results are given for `CCCCCCCCCCCC(=O)NCC(=O)NC1C(C)OC(Nc2ncnc3nc[nH]c23)C(O)C1O` (centres undefined)?
Answer: T/C (dose: 0.25 mg/kg/injection, schedule: Q01DX009 (ip), vehicle: other): 113 % of control; T/C (dose: 0.5 mg/kg/injection, schedule: Q01DX009 (ip), vehicle: other): 109 % of control

Question: What does the source list for `N#Cc1ccc(NN=NCCS(=O)CCCl)cc1` (centres undefined)?
Answer: T/C (dose: 6.25 mg/kg/injection, schedule: Q01DX009 (ip), vehicle: distilled water + Tween-80): 100 % of control; T/C (dose: 12.5 mg/kg/injection, schedule: Q01DX009 (ip), vehicle: distilled water + Tween-80): 111 % of control; T/C (dose: 25.0 mg/kg/injection, schedule: Q01DX009 (ip), vehicle: distilled water + Tween-80): 112 % of control

Question: With `O=C1c2ccccc2C(=O)c2c1cccc2-c1ccccc1` as the molecule, how does the T/C [7] read?
Answer: 86 % of control

Question: What about the T/C (dose: 100.0 mg/kg/injection, schedule: Q01DX005 (ip), vehicle: Klucel (hydroxypropylcellulose) (HPC)) of the same molecule?
Answer: 87 % of control

Question: What about the T/C (dose: 200.0 mg/kg/injection, schedule: Q01DX005 (ip), vehicle: Klucel (hydroxypropylcellulose) (HPC)) of the same molecule?
Answer: 88 % of control

Question: With `Cc1ccc(N2C(=O)CC3(CCCCC3)C2=O)cc1C` as the molecule, how does the T/C [4] read?
Answer: 106 % of control

Question: And the T/C [5]?
Answer: 105 % of control

Question: What about the T/C [6] of the same molecule?
Answer: 97 % of control

Question: What does the source list for `O=C1C=CC(=O)c2c(O)ccc(O)c21`?
Answer: T/C (dose: 0.2 mg/kg/injection, schedule: Q01DX005 (ip), vehicle: saline with Tween-80): 102 % of control; T/C (dose: 0.4 mg/kg/injection, schedule: Q01DX005 (ip), vehicle: saline with Tween-80): 97 % of control; T/C (dose: 0.8 mg/kg/injection, schedule: Q01DX005 (ip), vehicle: saline with Tween-80): 98 % of control; T/C (dose: 1.0 mg/kg/injection, schedule: Q04DX003 (ip), vehicle: saline with Tween-80): 100 % of control; T/C (dose: 2.0 mg/kg/injection, schedule: Q04DX003 (ip), vehicle: saline with Tween-80): 104 % of control; T/C (dose: 4.0 mg/kg/injection, schedule: Q04DX003 (ip), vehicle: saline with Tween-80): 100 % of control

Question: Which results are given for `COc1ccc(NC(=S)NN)cc1`?
Answer: T/C (dose: 37.5 mg/kg/injection, schedule: Q01DX009 (ip), vehicle: saline with Tween-80): 95 % of control; T/C (dose: 75.0 mg/kg/injection, schedule: Q01DX009 (ip), vehicle: saline with Tween-80): 90 % of control; T/C [8]: 87 % of control

Question: Which T/C (dose: 12.5 mg/kg/injection, schedule: Q01DX005 (ip), vehicle: Klucel (hydroxypropylcellulose) (HPC)) does the source give for `C=CC[C@]1(S(=O)(=O)c2ccccc2)[C@@H](N(C)C)C[C@@H](O[Si](C)(C)C(C)(C)C)[C@@H]1/C=C/[C@H](CCCCC)O[Si](C)(C)C(C)(C)C` here?
Answer: 107 % of control

Question: What about the T/C (dose: 25.0 mg/kg/injection, schedule: Q01DX005 (ip), vehicle: Klucel (hydroxypropylcellulose) (HPC)) of the same molecule?
Answer: 111 % of control

Question: And the T/C [7]?
Answer: 107 % of control

Question: `COC(=O)OCC#Cc1ccccc1` was tested. Which T/C (dose: 50.0 mg/kg/injection, schedule: Q04DX002 (ip), vehicle: saline with Tween-80) did it give?
Answer: 100 % of control

Question: And the T/C (dose: 100.0 mg/kg/injection, schedule: Q04DX002 (ip), vehicle: saline with Tween-80)?
Answer: 108 % of control

Question: What about the T/C (dose: 200.0 mg/kg/injection, schedule: Q04DX002 (ip), vehicle: saline with Tween-80) of the same molecule?
Answer: 112 % of control

Question: `COC(=O)/C=C/C=C/c1ccco1` was tested. Which T/C [9] did it give?
Answer: 99 % of control

Question: And the T/C [10]?
Answer: 87 % of control

Question: What about the T/C [11] of the same molecule?
Answer: 89 % of control

Question: What does the source list for `Cc1ccc(C)c(N2C(=O)CC3(CCCC3)C2=O)c1`?
Answer: T/C (dose: 100.0 mg/kg/injection, schedule: Q04DX003 (ip), vehicle: Klucel (hydroxypropylcellulose) (HPC)): 101 % of control; T/C (dose: 200.0 mg/kg/injection, schedule: Q04DX003 (ip), vehicle: Klucel (hydroxypropylcellulose) (HPC)): 101 % of control; T/C (dose: 400.0 mg/kg/injection, schedule: Q04DX003 (ip), vehicle: Klucel (hydroxypropylcellulose) (HPC)): 99 % of control

Question: `O/N=C/c1ccc2c(c1)OCO2` was tested. Which T/C [9] did it give?
Answer: 99 % of control

Question: And the T/C [10]?
Answer: 100 % of control

Question: What about the T/C [11] of the same molecule?
Answer: 87 % of control

Question: `Cn1c2nc(-[n+]3cccc(CO)c3)nc-2c([O-])n(C)c1=O` was tested. Which T/C [12] did it give?
Answer: 103 % of control

Question: What about the T/C [13] of the same molecule?
Answer: 99 % of control

Question: And the T/C [14]?
Answer: 103 % of control

Question: What does the source list for `COc1cc2c(cc1OC(C)=O)C=CCCC2=O`?
Answer: T/C [8]: 105 % of control; T/C (dose: 200.0 mg/kg/injection, schedule: Q04DX003 (ip), vehicle: saline with Tween-80): 100 % of control; T/C (dose: 400.0 mg/kg/injection, schedule: Q04DX003 (ip), vehicle: saline with Tween-80): 105 % of control

Question: Which results are given for `CC(=O)O/C(C#N)=C1\CCCC\C1=C(\C#N)OC(C)=O`?
Answer: T/C (dose: 6.25 mg/kg/injection, schedule: Q01DX001 (ip), vehicle: saline with Tween-80): 103 % of control; T/C (dose: 12.5 mg/kg/injection, schedule: Q01DX001 (ip), vehicle: saline with Tween-80): 107 % of control; T/C (dose: 25.0 mg/kg/injection, schedule: Q01DX001 (ip), vehicle: saline with Tween-80): 103 % of control

Question: What does the source list for `CCn1c(Cl)c(/C=N\Nc2ccccc2[N+](=O)[O-])c2ccccc21`?
Answer: T/C (dose: 12.5 mg/kg/injection, schedule: Q01DX001 (ip), vehicle: Klucel (hydroxypropylcellulose) (HPC)): 94 % of control; T/C (dose: 25.0 mg/kg/injection, schedule: Q01DX001 (ip), vehicle: Klucel (hydroxypropylcellulose) (HPC)): 88 % of control

Question: For `O=c1c(Br)c(Cl)nc2ccccn12`, which T/C (dose: 100.0 mg/kg/injection, schedule: Q01DX001 (ip), vehicle: saline with Tween-80) is on record?
Answer: 90 % of control

Question: What about the T/C (dose: 200.0 mg/kg/injection, schedule: Q01DX001 (ip), vehicle: saline with Tween-80) of the same molecule?
Answer: 100 % of control

Question: And the T/C (dose: 400.0 mg/kg/injection, schedule: Q01DX001 (ip), vehicle: saline with Tween-80)?
Answer: 95 % of control

Question: `C1=C[N-]c2c3c(ccc2=C1)=CC=C[N-]3.O=S(=O)(O)O.[Zn+2]` was tested. Which T/C (dose: 3.12 mg/kg/injection, schedule: Q04DX002 (ip), vehicle: Klucel (hydroxypropylcellulose) (HPC)) did it give?
Answer: 108 % of control

Question: What about the T/C (dose: 6.25 mg/kg/injection, schedule: Q04DX002 (ip), vehicle: Klucel (hydroxypropylcellulose) (HPC)) of the same molecule?
Answer: 100 % of control

Question: What about the T/C (dose: 12.5 mg/kg/injection, schedule: Q04DX002 (ip), vehicle: Klucel (hydroxypropylcellulose) (HPC)) of the same molecule?
Answer: 109 % of control

Question: What about the T/C (dose: 25.0 mg/kg/injection, schedule: Q04DX002 (ip), vehicle: Klucel (hydroxypropylcellulose) (HPC)) of the same molecule?
Answer: 111 % of control

Question: How did the T/C (dose: 12.5 mg/kg/injection, schedule: Q01DX009 (ip), vehicle: saline with Tween-80) turn out when `O=[N+]([O-])c1c(Br)sc(Br)c1[N+](=O)[O-]` was run?
Answer: 104 % of control

Question: What about the T/C (dose: 25.0 mg/kg/injection, schedule: Q01DX009 (ip), vehicle: saline with Tween-80) of the same molecule?
Answer: 95 % of control

Question: What about the T/C [9] of the same molecule?
Answer: 95 % of control

Question: Which T/C [1] does the source give for `CCSC(C(OC(C)=O)C(OC(C)=O)C(OC(C)=O)C(COC(C)=O)OC(C)=O)n1cnc2c(Cl)ncnc21` (centres undefined) here?
Answer: 100 % of control

Question: And the T/C [2]?
Answer: 90 % of control

Question: And the T/C [3]?
Answer: 96 % of control

Question: `CCOc1cc(CC[N+](C)(C)C)cc2c1ccc1ccc(OC)c(OC)c12` was tested. Which T/C (dose: 6.25 mg/kg/injection, schedule: Q01DX005 (ip), vehicle: saline with Tween-80) did it give?
Answer: 99 % of control

Question: What about the T/C (dose: 12.5 mg/kg/injection, schedule: Q01DX005 (ip), vehicle: saline with Tween-80) of the same molecule?
Answer: 100 % of control

Question: And the T/C (dose: 25.0 mg/kg/injection, schedule: Q01DX005 (ip), vehicle: saline with Tween-80)?
Answer: 96 % of control

Question: With `O=S1(=O)CCN(CCCCc2ccccc2)CC1` as the molecule, how does the T/C [4] read?
Answer: 94 % of control

Question: And the T/C [5]?
Answer: 101 % of control

Question: What about the T/C [6] of the same molecule?
Answer: 101 % of control

Question: How did the T/C [12] turn out when `COC(=O)c1cc(=O)n2cnc3c(ncn3C3OC(CO)C(O)C3O)c2c1` (centres undefined) was run?
Answer: 98 % of control

Question: What about the T/C [13] of the same molecule?
Answer: 100 % of control

Question: And the T/C [14]?
Answer: 100 % of control

Question: What does the source list for `CCCCCCCC(=O)NC1CC(O[C@H]2C[C@](O)(C(=O)CO)Cc3c(O)c4c(c(O)c32)C(=O)c2c(OC)cccc2C4=O)OC(C)C1O` (some centres undefined)?
Answer: T/C (dose: 6.25 mg/kg/injection, schedule: Q01DX009 (ip), vehicle: other): 153 % of control; T/C (dose: 12.5 mg/kg/injection, schedule: Q01DX009 (ip), vehicle: other): 177 % of control; T/C (dose: 25.0 mg/kg/injection, schedule: Q01DX009 (ip), vehicle: other): 184 % of control; T/C (dose: 50.0 mg/kg/injection, schedule: Q01DX009 (ip), vehicle: other): 155 % of control; T/C (dose: 100.0 mg/kg/injection, schedule: Q01DX009 (ip), vehicle: other): 86 % of control
